According to patent publication US20100304972A1, “HERBICIDE COMPOSITION” (priority 2007, published 2010):

Key:
Assay type in all cases: in vivo
[1] = tested on: Chenopodim album; experiment: Test Example 2: spray on plants from above ten days after sowing, herbicidal activity; conditions: sprayed on plants ten days after sowing, 21 days after treatment, scale 0-10
[2] = tested on: Sinapis arvensis; experiment: as above; conditions: sprayed on plants ten days after sowing, 21 days after treatment, scale 0-10
Procedure: (§1) The phytotoxicity to a crop is evaluated by indicating “harmless” in case that no or little phytotoxicity is recognized, “light” in case that light phytotoxicity is recognized, “medium” in case that medium phytotoxicity is recognized, or “severe” in case that severe phytotoxicity is recognized.
(§2) Field soil was filled in a plastic pot of 32 cm wide, 22 cm long and 8 cm high, and seeds of wheat (species: Norin No. 61), Sinapis arvensis, and Stellaria media were sowed thereon.
(§3) The plants were raised in a greenhouse and herbicidal activity and phytotoxicity were determined 21 days after the chemical treatment.

[3] = tested on: Stellaria media; experiment: as above; conditions: sprayed on plants ten days after sowing, 21 days after treatment, scale 0-10
Procedure: as §1, §2, §3

[4] = tested on: Cyperus esculentus; experiment: Test Example 4: soil spray on day of planting tubers, herbicidal activity; conditions: 14 days after treatment, scale 0-10
Source text: Field soil was filled in a plastic pot of 32 cm wide, 22 cm long and 8 cm high, and tubers of Cyperus esculentus were planted.
On the day of planting, each of an imazosulfuron suspension formulation (a 40% imazosulfuron-containing suspension formulation, trade name: Sibatite 40 manufactured by Sumitomo Chemical Co., Ltd.), a pendimethalin emulsifiable concentrate (a 30% pendimethalin-containing emulsifiable concentrate, trade name: Go-go-san 30 manufactured by BASF) and a mixed formulation prepared by mixing the imazosulfuron suspension formulation and the pendimethalin emulsifiable concentrate was diluted with water and uniformly sprayed on the soil with a small sprayer so that their amounts became those as shown in Table 4.
The plants were raised in a greenhouse and herbicidal activity was determined 14 days after the chemical treatment.

[5] = tested on: wheat (species: Norin No. 61); experiment: Test Example 2: spray on plants from above ten days after sowing, phytotoxicity to crop; conditions: 800 g/ha, sprayed on plants ten days after sowing, 21 days after treatment
Procedure: as §1, §2, §3

Structure (SMILES) | Herbicidal activity Ca ([1]; 100 g/ha) | Herbicidal activity Sa ([2]; 100 g/ha) | Herbicidal activity Sm ([3]; 100 g/ha) | Herbicidal activity ([4]; 25 g/ha) | Phytotoxicity Wheat [5] | Herbicidal activity Ca ([1]; 800 g/ha) | Herbicidal activity Sa ([2]; 800 g/ha) | Herbicidal activity Sm ([3]; 800 g/ha) | Herbicidal activity ([4]; 50 g/ha) | Herbicidal activity ([4]; 200 g/ha)
COc1cc(OC)nc(NC(=O)NS(=O)(=O)c2c(Cl)nc3ccccn23)n1 [Imazosulfuron, 1-(2-chloroimidazo[1,2-a]pyridin-3-ylsulfonyl)-3-(4,6-dimethoxypyrimidin-2-yl)urea] | 3 | 10 | 10 | 4 |  |  |  |  |  | 
CCC(CC)Nc1c([N+](=O)[O-])cc(C)c(C)c1[N+](=O)[O-] [Pendimethalin, N-(1-ethylpropyl)-3,4-dimethyl-2,6-dinitrobenzenamine] |  |  |  |  | harmless | 5 | 2 | 9 | 0 | 0
